# Experimental data: patent US6469120B1, “Water-stabilized organosilane compounds and methods for using the same” (BioShield Technologies, Inc., priority 1997, dated 2002)
# Experiments:
# [1] = no stabilizer; cited from earlier work
# [2] = Stabilization of aqueous Dow Corning 5772 siloxane solutions by polyols, clarity monitored over time; format: physicochemical
# Method: However, those skilled in the art will recognize that for practicality and commercial applications, the longer the period for which a stable composition can be achieved the better. Accordingly, a stock of solutions of known concentrations of the stabilizer is prepared in deionized water. A known amount of the solution, and in some cases additional deionized water and the siloxane were mixed in a vial. The vial was sealed with parafilm to prevent evaporation, and stored at ambient temperature.
# [3] = 5% siloxane solution with 0.94% to 19% polyol, ambient temperature
smiles,measurement,setting,value
CCCCCCCCCCCCCCCCCC[N+](C)(C)CCC[Si](OC)(OC)OC.[Cl-] [3-(trimethoxysilyl)propyl-dimethyloctadecyl ammonium chloride],time until mixture with water begins to lose effectiveness,[1],four to eight
O=C1O[C@H]([C@@H](O)CO)C(O)=C1O [L-ascorbic acid],time solution remained clear,[2]; 10% siloxane solution with 0.85% to 17% L-ascorbic acid,at least five
same,clarity of solution after two days,[2]; as much as 18% siloxane with as little as 0.79% L-ascorbic acid,remained clear
O=CC=O [glyoxal],time solution remained clear,"[2]; 9% siloxane with 4.1% to 18% glyoxal, aqueous",at least three
OC[C@@H](O)[C@@H](O)[C@H](O)[C@H](O)CO [mannitol],time solution remained clear,[2]; [3],seven
same,solubility of polyol in the siloxane solution,"[2]; high mannitol concentration, 5% siloxane solution",not completely soluble
OC[C@H]1O[C@@](CO)(O[C@H]2O[C@H](CO)[C@@H](O)[C@H](O)[C@H]2O)[C@@H](O)[C@@H]1O [sucrose],time solution remained clear,[2]; [3],at least seven
same,time solution remained clear,[2]; another sample at approximately 5% active siloxane,at least eight
O=C(OC[C@H]1O[C@@H](OC(=O)c2cc(O)c(O)c(OC(=O)c3cc(O)c(O)c(O)c3)c2)[C@H](OC(=O)c2cc(O)c(O)c(OC(=O)c3cc(O)c(O)c(O)c3)c2)[C@@H](OC(=O)c2cc(O)c(O)c(OC(=O)c3cc(O)c(O)c(O)c3)c2)[C@@H]1OC(=O)c1cc(O)c(O)c(OC(=O)c2cc(O)c(O)c(O)c2)c1)c1cc(O)c(O)c(OC(=O)c2cc(O)c(O)c(O)c2)c1 [tannic acid],stabilization of siloxane solution,[2]; tannic acid siloxane solution,not stabilized to any significant degree
